The structures appear in SMILES notation. Where two headings read alike, the source gives them in different places.

The target of one experiment is T1, F1F0-ATPase (Bos taurus, UniProt P13621).
T1 construct: from tissue
The experiment is described as follows: Inhibition of F1F0-ATPase activity in synthesizing ATP. It is filed as biochemical. The settings on record: inhibition of ATP synthesis by F1F0-ATPase; read-out: ATP Syn IC50.

The test system of another experiment is Ramos cells. Description: Cytotoxicity in Ramos cells. It is filed as cell-based. The settings on record: cytotoxicity in Ramos cells, read-out: Ramos Cell EC50.

Turning to `COc1ccc(C(=O)/N=C(\Nc2cc(-c3ccc(F)cc3)[nH]n2)NC(C)C)cc1` [Compound A-523], the half-maximal inhibitory concentration (IC50) at F1F0-ATPase is less than 10 µM. Moreover, the EC50 with Ramos cells is greater than 10 µM.

Consider `COCC(C)NC(=NC(=O)c1ccc(Cl)cc1)Nc1cc(-c2cc(F)cc(F)c2)n[nH]1` (stereo not shown) [Compound A-228], for which the IC50 at F1F0-ATPase was less than 10 µM. Further, in the experiment on Ramos cells, the EC50 is greater than 10 µM.

On to `CC1(C)OCC(CN/C(=N/C(=O)c2ccc(F)cc2)Nc2cc(C(F)(F)F)[nH]n2)O1` (stereo not shown) [Compound A-412], for which, at F1F0-ATPase, the concentration for half-maximal inhibition (IC50) was less than 10 µM. Besides, the EC50 in the experiment on Ramos cells is greater than 10 µM.

Regarding `CC(N/C(=N/C(=O)c1ccc(C(F)(F)F)cc1)Nc1cc(C(F)(F)F)[nH]n1)c1ccc(Cl)cc1` (stereo not shown) [Compound A-23], the concentration for half-maximal inhibition (IC50) at F1F0-ATPase was less than 10 µM. Further, in the experiment on Ramos cells (Homo sapiens), the EC50 is less than 10 µM.

On to `O=C(N=C(NCc1ccc(F)cc1Cl)Nc1cc(-c2cc(F)cc(F)c2)n[nH]1)c1ccc(C(F)(F)F)cc1` [Compound A-292], for which the IC50 on F1F0-ATPase is less than 10 µM. The EC50 with Ramos cells (Homo sapiens) was less than 10 µM.

For the compound `CC(C)CN/C(=N/C(=O)c1ccc(F)c(F)c1)Nc1cc(-c2cc(F)cc(Cl)c2)n[nH]1` [Compound A-287], the concentration for half-maximal inhibition (IC50) on F1F0-ATPase was less than 10 µM. Besides, the EC50 in the experiment with Ramos cells was less than 10 µM.

As for `CCC(C)CN/C(=N/C(=O)c1ccc(F)c(F)c1)Nc1cc(-c2ccc(C)c(F)c2)n[nH]1` (stereo not shown) [Compound A-321], on F1F0-ATPase, the IC50 was less than 10 µM. Moreover, the EC50 in the experiment on Ramos cells is less than 10 µM.

On to `O=C(/N=C(\Nc1cc(C(F)(F)F)n[nH]1)NC1CCCOC1)c1ccc(F)c(F)c1` (stereo not shown) [Compound A-105], for which, at F1F0-ATPase, the IC50 is less than 10 µM. Moreover, the half-maximal effective concentration (EC50) in the experiment on Ramos cells (Homo sapiens) was less than 10 µM.

For `O=C(/N=C(\Nc1cc(-c2ccc(F)cc2)[nH]n1)N1CCCC1)c1ccc(F)cc1` [Compound A-156], at F1F0-ATPase, the IC50 is greater than 10 µM. In addition, the EC50 with Ramos cells was greater than 10 µM.

Consider `CC(C)CN/C(=N/C(=O)c1ccc(F)c(F)c1)Nc1cc(-c2ccc(F)cc2)n[nH]1` [Compound A-261], for which the IC50 at F1F0-ATPase was less than 10 µM. For the same compound, in the experiment with Ramos cells, the 50% effective concentration (EC50) was less than 10 µM.

In the case of `CC(C)(C)N/C(=N/C(=O)c1ccc(F)c(F)c1)Nc1cc(C(F)(F)F)n[nH]1` [Compound A-12], the IC50 at F1F0-ATPase is less than 10 µM. Moreover, the EC50 in the experiment with Ramos cells (Homo sapiens) is less than 10 µM.

On to `COC[C@@H](C)NC(=NC(=O)c1ccc(F)cc1)Nc1cc(-c2ccc(F)cc2)n[nH]1` [Compound A-500], for which the IC50 at F1F0-ATPase is less than 10 µM. Also, the EC50 in the experiment with Ramos cells (Homo sapiens) was less than 10 µM.

`O=C(N=C(NCc1ccc(F)cc1Cl)Nc1cc(-c2ccc(Cl)cc2)n[nH]1)c1ccc(Cl)c(F)c1` [Compound A-473]: the IC50 on F1F0-ATPase is less than 10 µM. Also, the EC50 in the experiment with Ramos cells (Homo sapiens) is greater than 10 µM.

As for `CCC(C)N/C(=N/C(=O)c1ccc(F)c(F)c1)Nc1cc(-c2ccc(C)c(F)c2)n[nH]1` (stereo not shown) [Compound A-325], the concentration for half-maximal inhibition (IC50) at F1F0-ATPase is less than 10 µM. For the same compound, in the experiment with Ramos cells, the EC50 is less than 10 µM.

Consider `O=C(/N=C(\Nc1cc(-c2cc(F)cc(F)c2)n[nH]1)NC1COC1)c1ccc(F)c(F)c1` [Compound A-197], for which, on F1F0-ATPase, the half-inhibitory concentration (IC50) was less than 10 µM. Also, in the experiment with Ramos cells, the EC50 is less than 10 µM.

For `CC(C)(C)N/C(=N/C(=O)c1cccc(S(C)(=O)=O)c1)Nc1cc(-c2ccc(F)cc2)n[nH]1` [Compound A-499], the IC50 at F1F0-ATPase was less than 10 µM. Besides, the EC50 in the experiment on Ramos cells is less than 10 µM.

`CNC(=O)c1cc(NC(=NC(=O)c2ccc(C(F)(F)F)cc2)Nc2ccc(F)cc2Cl)[nH]n1` [Compound A-337]: the IC50 on F1F0-ATPase is greater than 10 µM. In addition, in the experiment on Ramos cells (Homo sapiens), the EC50 is greater than 10 µM.

As to `CC(C)(C)c1n[nH]c(N/C(=N\C(=O)c2ccc(C(F)(F)F)cc2)Nc2ccc(F)cc2Cl)c1F` [Compound A-336], the IC50 at F1F0-ATPase is less than 10 µM. Also, in the experiment on Ramos cells, the EC50 is less than 10 µM.

In the case of `CC(C)N/C(=N/C(=O)c1ccc(C(F)(F)F)cc1)Nc1cc(-c2ccc(Cl)cc2)n[nH]1` [Compound A-241], the 50% inhibitory concentration (IC50) on F1F0-ATPase was less than 10 µM. For the same compound, in the experiment on Ramos cells, the EC50 was less than 10 µM.

Turning to `CC(C)CN/C(=N/C(=O)c1cccc(S(C)(=O)=O)c1)Nc1cc(-c2ccc(F)cc2)n[nH]1` [Compound A-429], at F1F0-ATPase, the IC50 was less than 10 µM. Further, in the experiment with Ramos cells, the EC50 was less than 10 µM.

Take `Cn1nc(C(F)(F)F)cc1N/C(=N\C(=O)c1ccc(C(F)(F)F)cc1)Nc1cc(F)cc(Cl)c1` [Compound A-48]: the half-maximal inhibitory concentration (IC50) at F1F0-ATPase was less than 10 µM. Also, the EC50 in the experiment on Ramos cells (Homo sapiens) was less than 10 µM.

In the case of `CCOCCCN/C(=N/C(=O)c1ccc(C(F)(F)F)cc1)Nc1cc(-c2cc(F)cc(F)c2)n[nH]1` [Compound A-282], the IC50 on F1F0-ATPase is less than 10 µM. In addition, the EC50 in the experiment with Ramos cells was less than 10 µM.

Consider `COc1cccc(C(=O)/N=C(/NCC(C)C)Nc2cc(-c3ccc(Cl)cc3)[nH]n2)c1` [Compound A-169], for which the concentration for half-maximal inhibition (IC50) at F1F0-ATPase is less than 10 µM. Also, the concentration for a half-maximal effect (EC50) with Ramos cells was less than 10 µM.

As to `CC(C)(C)N/C(=N/C(=O)c1ccc(C(F)(F)F)cc1)Nc1cc(C(F)(F)F)n[nH]1` [Compound A-13], the IC50 on F1F0-ATPase was less than 10 µM. For the same compound, the EC50 in the experiment with Ramos cells (Homo sapiens) was less than 10 µM.

Take `O=C(/N=C(\Nc1cc(-c2ccc(F)cc2)n[nH]1)NC1COC1)c1ccc(F)c(F)c1` [Compound A-199]: at F1F0-ATPase, the IC50 was less than 10 µM. In addition, in the experiment with Ramos cells, the EC50 is greater than 10 µM.

On to `CC1(N/C(=N/C(=O)c2ccc(Cl)cc2)Nc2cc(C(F)(F)F)[nH]n2)CCC1` [Compound A-6], for which the IC50 on F1F0-ATPase is less than 10 µM. Further, the EC50 with Ramos cells (Homo sapiens) was less than 10 µM.

Consider `CCC(C)N/C(=N/C(=O)c1ccc(F)c(F)c1)Nc1cc(-c2ccc(Cl)cc2)n[nH]1` (stereo not shown) [Compound A-225], for which, at F1F0-ATPase, the IC50 is less than 10 µM. Besides, the EC50 in the experiment with Ramos cells was less than 10 µM.

Turning to `O=C(/N=C(/NCc1ccc(F)c(Cl)c1)Nc1cc(C(F)F)[nH]n1)c1ccc(F)c(F)c1` [Compound A-61], the IC50 on F1F0-ATPase was less than 10 µM. In the experiment on Ramos cells (Homo sapiens), the EC50 is greater than 10 µM.

With `N#Cc1cccc(C(=O)/N=C(\Nc2cc(-c3ccc(Cl)cc3)n[nH]2)NC2CCC2)c1` [Compound A-307], the IC50 at F1F0-ATPase was less than 10 µM. The half-maximal effective concentration (EC50) with Ramos cells is less than 10 µM.

For the compound `CC(C)(C)N/C(=N/C(=O)c1ccc(F)cc1)Nc1cc(-c2cccc(Cl)c2)[nH]n1` [Compound A-134], the 50% inhibitory concentration (IC50) at F1F0-ATPase was less than 10 µM. Further, in the experiment with Ramos cells, the EC50 is less than 10 µM.

In the case of `Cc1ccc(-c2cc(N/C(=N\C(=O)c3ccc(F)c(F)c3)NCc3ccc(F)cc3Cl)[nH]n2)cc1` [Compound A-479], on F1F0-ATPase, the IC50 is less than 10 µM. Also, the EC50 in the experiment with Ramos cells is less than 10 µM.

Take `O=C(/N=C(/NCc1ccc(Cl)c(F)c1)Nc1cc(C(F)(F)F)[nH]n1)c1ccc(F)c(F)c1` [Compound A-26]: the IC50 on F1F0-ATPase was less than 10 µM. For the same compound, in the experiment on Ramos cells (Homo sapiens), the EC50 was less than 10 µM.

For the compound `CC(C)CN/C(=N/C(=O)c1cccnc1C(F)(F)F)Nc1cc(-c2ccc(F)cc2)[nH]n1` [Compound A-166], the IC50 on F1F0-ATPase is less than 10 µM. For the same compound, the EC50 in the experiment on Ramos cells was less than 10 µM.

Consider `O=C(/N=C(\Nc1cc(C(F)(F)F)n[nH]1)NC1CCOCC1)c1ccc(F)c(F)c1` [Compound A-104], for which, on F1F0-ATPase, the IC50 was less than 10 µM. Further, the EC50 in the experiment with Ramos cells (Homo sapiens) is greater than 10 µM.

For `CC(C)(C)N/C(=N/C(=O)c1cccc(Cl)c1)Nc1cc(-c2cccc(Cl)c2)[nH]n1` [Compound A-129], the IC50 at F1F0-ATPase was less than 10 µM. The EC50 with Ramos cells is less than 10 µM.

As for `COCC(C)NC(=NC(=O)c1cccc(OC)c1)Nc1cc(C(F)(F)F)n[nH]1` (stereo not shown) [Compound A-537], the IC50 on F1F0-ATPase was less than 10 µM. Besides, the EC50 in the experiment on Ramos cells (Homo sapiens) was less than 10 µM.

For `CC(C)(C)c1cc(N/C(=N\C(=O)c2ccc(Cl)cc2)NCC(F)(F)F)n[nH]1` [Compound A-16], the IC50 at F1F0-ATPase was less than 10 µM. Further, the EC50 in the experiment with Ramos cells (Homo sapiens) was less than 10 µM.

Consider `COCC(C)NC(=NC(=O)c1cccc(F)c1)Nc1cc(-c2ccc(F)cc2)n[nH]1` (stereo not shown) [Compound A-389], for which the IC50 on F1F0-ATPase was less than 10 µM. Further, the concentration giving a half-maximal response (EC50) with Ramos cells is less than 10 µM.

The record behind these values is patent US9139532B2, “Pyrazolyl guanidine F1F0-atpase inhibitors and therapeutic uses thereof” (Lycera Corporation, priority 2010, dated 2015).
